Experimental data from PMC11969024, “Development of chemokine network inhibitors using combinatorial saturation mutagenesis” (Communications Biology, 2025).

Tested on: panel of 22 biotinylated chemokines
Assay: Saturation (NNK) mutagenesis phage-display selection against biotinylated chemokines, enrichment by NGS
Type: binding, human
Conditions: two-sided Dunnett's test; for log2E compared to parental HD2, CXnC chemokines: 7 CXnC chemokines
Source text: 81-mer mutant oligonucleotides replacing NNK at each of the 16 peptide encoding residues were designed with the sequence arms 5’-[…], and […]-3’ at respective ends to enable amplification and cloning. Oligonucleotides (Genscript) were individually amplified and cloned into plasmid prSTOP4Nsi (described in[37]). prSTOP4Nsi was amplified using primers (Sigma): […]
Oligonucleotides were amplified using primers (Sigma): oligo_fwd: 5’-[…] and oligo_rev2: 5’-[…]. The PCR products were cloned into prSTOP4Nsi plasmid using NEB Builder HiFi Assembly (E5520, NEB) following instructions of the manufacturer. The vector pool was used to transform electrocompetent ElectroMAX™ DH5α-E™ cells (11319019, Invitrogen). Plasmid DNA was harvested by MaxiPrep (GeneJet Plasmid Maxiprep Kit (K0491, Thermo Scientific)). DNA was transformed into SS320 phage display electrocompetent cells (60512, Lucigen), following the manufacturer’s protocol. Following electroporation, cells were resuspended in 950 μL recovery media and transferred to 50 mL Falcon tubes. 100 μL 10^11 CFU/mL M13KO7 helper phage (N0315S, NEB) was added, and tubes shaken at 37 °C, 220 RPM, 1 h. 1 mL recovery culture was added to 2YT medium containing +50ug/mL carbenicillin (C9231, Sigma) and 25ug/mL kanamycin (K1377, Sigma), and grown overnight at 37 °C, 220 RPM. Phage was precipitated from culture supernatant by adding 22.5 mL of supernatant to 4.5 mL 20% PEG 8000 (89510, Sigma)/2.5 M NaCl (S9625, Sigma), incubating on ice for 30 min, and centrifuging at 12857 g, 4 °C, 10 min. The phage pellet was resuspended in 1 mL of PBT (PBS (P4417, Sigma), BSA (A7030, Sigma) 0.20%, Tween 20 (P1379, Sigma) 0.05%). Undissolved particulate matter was removed by centrifugation at 15871 g, 4 °C, 10 min. Glycerol (G5516, Sigma, 10% final (v/v) was added, and aliquots stored at −80 °C. A schematic of phage-display library construction is provided in Supplementary Fig. 12.
Phage display screening was performed as described. Experiments were performed in 96-well plates (Greiner Bio-One, 655180). Biotinylated chemokines or complement C5A (1μg, Almac or Protein Foundry) were incubated overnight at 4 °C with shaking at 250 RPM with 5μl streptavidin-coated magnetic beads (Dynabeads™ M-280 Streptavidin, Invitrogen, 11205D) in 100 μl PBS. Chemokine-bound beads were blocked for two hours in 200μl blocking buffer (PBS (phosphate-buffered saline, Sigma, P4417) + 0.2% BSA (bovine serum albumin, Sigma, A7030) with shaking at 250 RPM. Phage library (100μL, 10^10 CFU/mL) was bound to blocked beads for two hours at room temperature with shaking at 250 RPM. Beads were washed 15 times with PT buffer (PBS + 0.05% Tween 20 (Sigma, P1379)) to remove unbound phage then transferred to a fresh plate. Beads were incubated with 100μL phage-resistant Omnimax E. coli (Invitrogen, A10469) at optical density (OD600) 0.6-0.8, shaken at 37 °C for 30 min. Following this 10 µL M13K07 helper phage (NEB, N0315S, final concentration 10^10 CFU/mL) was added and shaken at 37 °C for 45 min. Cells were transferred to 1 mL 2YT medium (at pH7, MP Biomedicals™, 113012031, supplemented with 150 µg/mL carbenicillin (Sigma, C9231) and 75 µg/mL kanamycin (Sigma, K1377) in a 96-deep well block with V-bottom (Corning, CLS3960) and grown with overnight shaking at 37 °C, 200 RPM. Plates were either centrifuged at 2000g (4 °C, 30 min) or transferred to screw cap tubes and pelleted by centrifugation at 4000 g and 4 °C for 15 min. 540 µL of supernatant was transferred to a new 96-deep well plate, 60 µL of 10×PBT (10×PBS + 2% BSA + 0.5% Tween 20) added and stored at 4 °C for subsequent rounds. Phage display was carried out for three rounds. A schematic of phage-display library screening is provided in Supplementary Fig. 12.
We amplified inserts from the input library and from the selected phage population directly from phage by PCR using primers: 5’-[…] and 5’-[…] (Life Technologies). […]

Sequence	log2E compared to parental HD2, CXnC chemokines	log2E compared to parental HD2, all chemokines (three selection rounds, 22 chemokines)
EEDDWTAYAPLTCYFT [HD2Y5W, HD2 point mutant]	significant improvement	
EEDDYWAYAPLTCYFT [HD2T6W, HD2 point mutant]	significant improvement	significantly improved
